US20030129134A1, “Method of monitoring neuroprotective treatment” (Pfizer Inc., priority 2001, published 2003)

System: S-100b
Test: Serum S-100b levels in patients with severe contusive-type head trauma treated by constant infusion
Assay type: in vivo, human
Settings: constant infusion for 72 hours, serum samples out to 120 hours post-infusion, luminometric immunoassay
From the text: Levels of S-100b can be measured in a biological sample of a patient's blood or CSF using a commercially available immunoradiometric assay or luminometric immunoassay kit such as those available from Byk-Sangtec Diagnostica GmbH & Co. (Dietzenbach, Germany), which are based on a two-site immunoluminometric sandwich assay using the commercially available LIAISON® Sangtec® S-100 assay system. In this assay system, paramagnetic particles are coated with two anti-S100b monoclonal antibodies directed to different epitopes, and a secondary anti-S100b monoclonal antibody labeled with an isoluminol derivative is provided as detection antibody. The paramagnetic particles, assay buffer, and biological sample are first incubated and unbound material is removed by a wash cycle. […] Subsequently, starter reagents that activate the chemoluminscent reaction are added and the S-100b concentration is determined via the chemiluminescence reaction induced by the previously added reagents. The light signal is measured in relative light units (RLUs) and is directly proportional to the amount of S-100b protein in the sample. […]
S-100b levels were measured in the serum of patients suffering from severe contusive-type head trauma. […] S-100b levels were determined using a commercially available luminometric immunoassay kit from Byk-Sangtec Diagnostica GmbH & Co. (Dietzenbach, Germany).

C[C@@H]([C@@H](O)c1ccc(O)cc1)N1CCC(O)(c2ccccc2)CC1 [CP-101,606, (1S,2S)-1-(4-hydroxyphenyl)-2-(4-hydroxy-4-phenylpiperidin-1-yl)-1-propanol]
S-100b levels in serum compared to the placebo group: significantly reduced
